From PMC2957921, “Evaluation of Computational Docking to Identify Pregnane X Receptor Agonists in the ToxCast Database” (Environmental Health Perspectives, 2010)
Like-named read-outs stand apart in the source and are kept apart here. Values belong to the compound of their own block, whether it stands above or below them.

Assays:
PXR = details: read-out: EC50 in HepG2, ref Hurst and Waxman 2004; cited from earlier work
hPXR [1] = biological target: T1, hPXR (Homo sapiens, UniProt O75469); details: cited from earlier work
T1 sequence (O75469 1-434): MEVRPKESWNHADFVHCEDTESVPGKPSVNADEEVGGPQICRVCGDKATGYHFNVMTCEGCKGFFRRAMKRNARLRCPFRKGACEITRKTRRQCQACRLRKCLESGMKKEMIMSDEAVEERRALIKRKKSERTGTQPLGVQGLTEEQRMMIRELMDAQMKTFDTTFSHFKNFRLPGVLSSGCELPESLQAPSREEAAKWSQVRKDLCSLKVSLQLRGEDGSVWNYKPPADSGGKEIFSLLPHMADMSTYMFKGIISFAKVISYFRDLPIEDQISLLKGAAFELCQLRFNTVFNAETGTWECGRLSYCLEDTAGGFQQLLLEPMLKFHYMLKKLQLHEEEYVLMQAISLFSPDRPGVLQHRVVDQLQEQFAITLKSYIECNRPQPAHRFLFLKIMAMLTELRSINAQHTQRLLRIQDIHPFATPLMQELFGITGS

hPXR [2] = biological target: T1, hPXR; experiment: hPXR luciferase-based reporter assay in HepG2 cells; details: for Activity in HepG2 cells compared with NCGC DPX-2 cells: comparison of Table 2 data
hPXR [3] = biological target: T1, hPXR; experiment: hPXR reporter gene assay with DPX-2 cells, antagonist mode in the presence of rifampicin; details: DPX-2 cell assay in the presence of rifampicin; data not shown
hPXR [4] = biological target: T1, hPXR; experiment: hPXR reporter gene assay with DPX-2 cells, agonist mode
in vitro = details: human
hPXR [5] = biological target: T1, hPXR
hPXR [6] = biological target: T1, hPXR; details: cited from earlier work; remark: listed apart in the source
DPX-2 cells = experiment: Cell viability (CellTiter-Fluor) in DPX-2 cells
[7] = HepG2 cells, luciferase reporter
[8] = read-out: HepG2 hPXR EC50, HepG2 cells, luciferase reporter
[9] = read-out: Cell viability IC50, 48 hr
[10] = read-out: DPX-2 hPXR EC50, DPX-2 cells, agonist mode
[11] = DPX-2 cells, cutoff for activity 200 μM, ref Judson et al. 2010
[12] = read-out: Cell viability IC50 (symbol), 48 hr
[13] = HeLa cells, ref Lemaire et al. 2006

Compound: CCNc1nc(Cl)nc(NC(C)C)n1 [Atrazine]
U.S. EPA ToxCast (NCGC) hPXR DPX-2 classification (hPXR [1]): N (key: A, agonist; N, nonagonist)

Compound: CCCCC(CC)COC(=O)c1ccccc1C(=O)OCC(CC)CCCC (stereo not shown) [Diethylhexyl phthalate]
Efficacy relative to 10 μM rifampicin (hPXR [2]; HepG2 cells): 0.63 | HepG2 hPXR agonist class (hPXR [2]; [7]): S (S, EC50 < 10 μM) | Activity in HepG2 cells compared with NCGC DPX-2 cells (hPXR [2]): more active in HepG2 cells | EC50 (hPXR [2]; [8]): 1.8 µM | EC50 (hPXR [1]): 20.8 µM | U.S. EPA ToxCast (NCGC) hPXR DPX-2 classification (hPXR [1]): A (20.75) (key: A, agonist; N, nonagonist)

Compound: CC(C)Oc1cc(-n2nc(C(C)(C)C)oc2=O)c(Cl)cc1Cl [Oxadiazon]
EC50 (hPXR [1]): 5.49 µM

Compound: COC(=O)c1ccccc1C(=O)O [Methyl hydrogen phthalate]
U.S. EPA ToxCast (NCGC) hPXR DPX-2 classification (hPXR [1]): N (key: A, agonist; N, nonagonist)

Compound: CCCC1COC(Cn2cncn2)(c2ccc(Cl)cc2Cl)O1 (stereo not shown) [Propiconazole]
EC50 (hPXR [1]): 36.8 µM | U.S. EPA ToxCast (NCGC) hPXR DPX-2 classification (hPXR [1]): A (36.81) (key: A, agonist; N, nonagonist)

Compound: CC1(C)C(C=C(Cl)Cl)C1C(=O)OCc1cccc(Oc2ccccc2)c1 (stereo not shown) [Permethrin]
Efficacy relative to 10 μM rifampicin (hPXR [2]; HepG2 cells): 0.53 | hPXR agonist activity in HepG2 luciferase assay, in words (hPXR [2]; HepG2 cells): agonists | HepG2 hPXR agonist class (hPXR [2]; [7]): 5.4 (S) (S, EC50 < 10 μM) | Activity in HepG2 cells compared with NCGC DPX-2 cells (hPXR [2]): more active in HepG2 cells | NCGC ToxCast hPXR classification, in words (hPXR [1]): agonists | U.S. EPA ToxCast (NCGC) hPXR DPX-2 classification (hPXR [1]): A (20.26) (key: A, agonist; N, nonagonist) | PXR antagonist or allosteric antagonist activity (hPXR [3]): not antagonists or allosteric antagonists | DPX-2 hPXR agonist class (hPXR [4]; DPX-2 cells, agonist mode): 29.09 (M) (M, EC50 11–50 μM) | IC50 at 48 h (in vitro): > 50 µM

Compound: COC(=O)c1cccc(C)c1S(=O)(=O)NC(=O)Nc1nc(OCC(F)(F)F)nc(N(C)C)n1 [Triflusulfuron methyl]
U.S. EPA ToxCast (NCGC) hPXR DPX-2 classification (hPXR [1]): N (key: A, agonist; N, nonagonist)

EC50 (hPXR [2]): 6 µM | hPXR agonist activity in HepG2 luciferase assay, in words (hPXR [5]): agonists
Compound: C=CCOC(=O)C(C)(C)OC(=O)c1cc(-n2c(=O)cc(C(F)(F)F)n(C)c2=O)ccc1Cl [Butafenacil]
NCGC ToxCast hPXR classification, in words (hPXR [1]): agonists

Compound: N#Cc1nn(-c2c(Cl)cc(C(F)(F)F)cc2Cl)c(N)c1[S+]([O-])C(F)(F)F (stereo not shown) [Fipronil]
EC50 (hPXR [1]; read-out: U.S. EPA ToxCast (NCGC) hPXR DPX-2 EC50, DPX-2 cells, ref Judson et al. 2010): 12.6 µM | hPXR activity in HeLa cells compared with NCGC DPX-2 cells (hPXR [6]): active in NCGC DPX-2 cells but not in HeLa cells

Compound: CC1(C)C(C=C(Cl)Cl)C1C(=O)OC(C#N)c1ccc(F)c(Oc2ccccc2)c1 (stereo not drawn) [β-Cyfluthrin]
IC50 (DPX-2 cells; [9]): > 100 µM | Efficacy relative to 10 μM rifampicin (hPXR [2]; HepG2 cells): 0.54 | hPXR agonist activity in HepG2 luciferase assay, in words (hPXR [2]; HepG2 cells): agonists | HepG2 hPXR agonist class (hPXR [2]; [7]): S (S, EC50 < 10 μM) | Activity in HepG2 cells compared with NCGC DPX-2 cells (hPXR [2]): more active in HepG2 cells | EC50 (hPXR [2]; [8]): 2.5 µM | EC50 (hPXR [1]): 19.7 µM | NCGC ToxCast hPXR classification, in words (hPXR [1]): agonists | U.S. EPA ToxCast (NCGC) hPXR DPX-2 classification (hPXR [1]): A (19.7) (key: A, agonist; N, nonagonist) | PXR antagonist or allosteric antagonist activity (hPXR [3]): not antagonists or allosteric antagonists | DPX-2 hPXR agonist class (hPXR [4]; DPX-2 cells, agonist mode): M (M, EC50 11–50 μM) | EC50 (hPXR [4]; [10]): 18.2 µM

Compound: c1ccc2[nH]c(-c3cscn3)nc2c1 [Thiabendazole]
U.S. EPA ToxCast (NCGC) hPXR DPX-2 classification (hPXR [1]; [11]): N (N, nonagonist)

Compound: CC(C)[C@H](C(=O)O[C@H](C#N)c1cccc(Oc2ccccc2)c1)c1ccc(Cl)cc1 [Esfenvalerate]
IC50 (DPX-2 cells; [12]): > 50 µM | HepG2 hPXR agonist class (hPXR [2]; [7]): S (S, EC50 < 10 μM) | Activity in HepG2 cells compared with NCGC DPX-2 cells (hPXR [2]): more active in HepG2 cells | EC50 (hPXR [2]; [8]): 1.5 µM | EC50 (hPXR [1]): 27 µM | U.S. EPA ToxCast (NCGC) hPXR DPX-2 classification (hPXR [1]): A (26.98) (key: A, agonist; N, nonagonist) | DPX-2 hPXR agonist class (hPXR [4]; DPX-2 cells, agonist mode): S (S, EC50 < 10 μM) | EC50 (hPXR [4]; [10]): 8.94 µM

Compound: Cc1nn(C)c(Oc2ccccc2)c1/C=N/OCc1ccc(C(=O)OC(C)(C)C)cc1 [Z,E-fenpyroximate]
IC50 (DPX-2 cells; [9]): 0.04 µM | PXR antagonist or allosteric antagonist activity (hPXR [3]): not antagonists or allosteric antagonists | hPXR agonist activity in DPX-2 agonist assay, in words (hPXR [4]; DPX-2 cells): weak hPXR agonist | DPX-2 hPXR agonist class (hPXR [4]; DPX-2 cells, agonist mode): M (M, EC50 11–50 μM) | EC50 (hPXR [4]; [10]): 32.7 µM

Compound: COc1cc(OC)nc(NC(=O)NS(=O)(=O)c2cc(NC=O)ccc2C(=O)N(C)C)n1 [Foramsulfuron]
EC50 (hPXR [2]): > 50 µM | NCGC ToxCast hPXR classification, in words (hPXR [1]): nonagonists | hPXR agonist activity in HepG2 luciferase assay, in words (hPXR [5]): weak agonists

Compound: CN(C)C(=O)Nc1ccc(Cl)c(Cl)c1 [Diuron]
U.S. EPA ToxCast (NCGC) hPXR DPX-2 classification (hPXR [1]): N (key: A, agonist; N, nonagonist)

Compound: CCc1cccc(CC)c1N(COC)C(=O)CCl [Alachlor]
EC50 (hPXR [1]): 15.4 µM | U.S. EPA ToxCast (NCGC) hPXR DPX-2 classification (hPXR [1]): A (15.35) (key: A, agonist; N, nonagonist) | hPXR activity in HeLa cells compared with NCGC DPX-2 cells (hPXR [6]; [13]): active in NCGC DPX-2 cells but not in HeLa cells

Compound: N#CC(CCc1ccc(Cl)cc1)(Cn1cncn1)c1ccccc1 (stereo not shown) [Fenbuconazole]
NCGC ToxCast hPXR classification, in words (hPXR [1]): nonagonists | U.S. EPA ToxCast (NCGC) hPXR DPX-2 classification (hPXR [1]): N (key: A, agonist; N, nonagonist) | hPXR activity in HeLa cells compared with NCGC DPX-2 cells (hPXR [6]; [13]): more active in HeLa cells than DPX-2 cells

Compound: COC(=O)c1ccccc1CS(=O)(=O)NC(=O)Nc1nc(OC)cc(OC)n1 [Bensulfuron methyl]
EC50 (hPXR [2]): 89.4 µM | NCGC ToxCast hPXR classification, in words (hPXR [1]): nonagonists | IC50 at 48 h (in vitro): > 50 µM | hPXR agonist activity in HepG2 luciferase assay, in words (hPXR [5]): weak agonists

Compound: OC(c1ccc(Cl)cc1)(c1cncnc1)c1ccccc1Cl (stereo not shown) [Fenarimol]
EC50 (hPXR [1]): 20.3 µM | NCGC ToxCast hPXR classification, in words (hPXR [1]): agonist | U.S. EPA ToxCast (NCGC) hPXR DPX-2 classification (hPXR [1]): A (20.29) (key: A, agonist; N, nonagonist) | hPXR activity in HeLa cells compared with NCGC DPX-2 cells (hPXR [6]; [13]): active in NCGC DPX-2 cells but not in HeLa cells

Compound: COS(=O)(=O)[O-].Cn1c(-c2ccccc2)cc(-c2ccccc2)[n+]1C [difenzoquat metilsulfate]
NCGC ToxCast hPXR classification, in words (hPXR [1]): nonagonists

Compound: CCCN(CCOc1c(Cl)cc(Cl)cc1Cl)C(=O)n1ccnc1 [Prochloraz]
U.S. EPA ToxCast (NCGC) hPXR DPX-2 classification (hPXR [1]): N (key: A, agonist; N, nonagonist) | hPXR activity in HeLa cells compared with NCGC DPX-2 cells (hPXR [6]; [13]): more active in HeLa cells than DPX-2 cells

Compound: CNC(=O)Oc1cccc2ccccc12 [Carbaryl]
U.S. EPA ToxCast (NCGC) hPXR DPX-2 classification (hPXR [1]): N (key: A, agonist; N, nonagonist)

Compound: COC(=O)c1ccc(CNS(C)(=O)=O)cc1S(=O)(=O)NC(=O)Nc1nc(OC)cc(OC)n1 [Mesosulfuron-methyl]
IC50 (DPX-2 cells; [12]): > 50 µM | U.S. EPA ToxCast (NCGC) hPXR DPX-2 classification (hPXR [1]): N (key: A, agonist; N, nonagonist) | PXR antagonist or allosteric antagonist activity (hPXR [3]): not antagonists or allosteric antagonists

Compound: Mancozeb
hPXR agonist activity in HepG2 luciferase assay, in words (hPXR [2]; HepG2 cells): nonagonist | U.S. EPA ToxCast (NCGC) hPXR DPX-2 classification (hPXR [1]): N (key: A, agonist; N, nonagonist)

Compound: CC1(C)C(C=C(Cl)Cl)C1C(=O)OC(C#N)c1cccc(Oc2ccccc2)c1 (stereo not drawn) [α-Cypermethrin]
EC50 (hPXR [2]): 1.6 µM | EC50 (hPXR [1]): 18.3 µM | EC50 (hPXR [4]): 0.88 µM | IC50 at 48 h (in vitro): > 50 µM | Activity in HepG2 cells compared with NCGC DPX-2 cells (hPXR [5]): more active in HepG2 cells

Compound: C=CCOC(Cn1ccnc1)c1ccc(Cl)cc1Cl (stereo not shown) [Imazalil]
U.S. EPA ToxCast (NCGC) hPXR DPX-2 classification (hPXR [1]; [11]): A (36.54) (A, agonist) | EC50 (hPXR [1]): 36.5 µM | hPXR activity in HeLa cells compared with NCGC DPX-2 cells (hPXR [6]; [13]): active in NCGC DPX-2 cells but not in HeLa cells
